Assays:
[1] = target: T1, Papain (Carica papaya, UniProt P00784); test: Papain inhibition (casein digestion, SDS-PAGE); assay type: biochemical
T1 construct: purchased Sigma P4762
T1 sequence (P00784 134-345): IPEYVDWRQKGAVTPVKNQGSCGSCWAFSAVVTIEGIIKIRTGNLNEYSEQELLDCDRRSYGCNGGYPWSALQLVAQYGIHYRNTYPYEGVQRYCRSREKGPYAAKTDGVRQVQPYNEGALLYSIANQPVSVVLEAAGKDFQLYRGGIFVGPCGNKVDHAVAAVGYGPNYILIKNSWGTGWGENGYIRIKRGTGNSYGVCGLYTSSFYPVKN
Method: Papain (Sigma ref. P4762) and casein (Merck ref. VM874644) were dissolved in 40 mM TrisHCl buffers pH6.8 and pH9.5 respectively. Casein at the concentration of 0.5 μg/μl was incubated with the inhibitory compounds at efficient inhibitory concentration or with DMSO for 15 min and then digested by Papain (2.5 ng/μl) at RT over 45 min. The digestion samples were collected at time: 5, 15, 30 and 45 min. To inactivate the protease Laemmli 2× was added and each sample was heated at 95° C. for 5 min then analyzed with SDS-PAGE and stained with Coomassie Blue.

[2] = target: T2, UCH-L3 (Homo sapiens, UniProt P15374); test: UCH-L3 inhibition assay (Ub-Rhodamine); assay type: biochemical; settings: UCH-L3 3 nM
T2 construct: or the more distant UCH-L3 enzyme (Full length); purchased BostonBiochem E-325
T2 sequence (P15374 1-230): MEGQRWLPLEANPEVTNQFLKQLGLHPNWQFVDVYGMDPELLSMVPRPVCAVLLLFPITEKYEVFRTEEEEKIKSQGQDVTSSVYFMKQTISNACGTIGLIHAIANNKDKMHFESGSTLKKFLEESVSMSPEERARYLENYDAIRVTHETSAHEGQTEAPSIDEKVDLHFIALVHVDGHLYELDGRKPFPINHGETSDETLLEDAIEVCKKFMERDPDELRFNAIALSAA
Method: UCH-L3 (BostonBiochem ref. E-325) was used at a concentration of 3 nM in the presence of the Ub-Rhodamine. Enzymatic inhibition was monitored as for USP8 or USP2 CD.

[3] = target: T3, catalytic domain of USP2 (USP2CD) (Homo sapiens, UniProt O75604); test: USP2 CD inhibition (Ub-Rho); assay type: biochemical; settings: USP2CD 16 nM
T3 construct: The purified catalytic domain of USP2 (USP2CD, in-house purified) was used; made in house
T3 sequence (O75604 267-599 limits assumed): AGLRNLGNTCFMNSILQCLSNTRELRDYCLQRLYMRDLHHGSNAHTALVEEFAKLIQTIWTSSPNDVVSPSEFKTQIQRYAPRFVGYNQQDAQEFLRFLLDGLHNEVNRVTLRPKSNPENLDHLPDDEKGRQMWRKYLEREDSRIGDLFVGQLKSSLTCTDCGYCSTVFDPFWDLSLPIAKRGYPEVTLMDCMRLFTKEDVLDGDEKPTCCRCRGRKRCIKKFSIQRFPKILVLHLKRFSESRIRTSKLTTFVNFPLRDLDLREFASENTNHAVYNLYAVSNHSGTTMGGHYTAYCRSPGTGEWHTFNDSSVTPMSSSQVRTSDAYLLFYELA
Method: The purified catalytic domain of USP2 (USP2CD, in-house purified) was used at a concentration of 16 nM in the presence of the artificial substrate Ub-Rho. Inhibition assays were performed as described above.

[4] = target: T4, USP8CD (Homo sapiens, UniProt P40818); test: Reversibility (dilution / gel filtration) assay of USP8 inhibition; assay type: biochemical; settings: USP8CD 60 nM, activity before and after gel column filtration
T4 construct: an in-house purified catalytic domain of USP8 (USP8CD) was used at a concentration of 80 nM; made in house
T4 sequence (P40818 777-1109 limits assumed): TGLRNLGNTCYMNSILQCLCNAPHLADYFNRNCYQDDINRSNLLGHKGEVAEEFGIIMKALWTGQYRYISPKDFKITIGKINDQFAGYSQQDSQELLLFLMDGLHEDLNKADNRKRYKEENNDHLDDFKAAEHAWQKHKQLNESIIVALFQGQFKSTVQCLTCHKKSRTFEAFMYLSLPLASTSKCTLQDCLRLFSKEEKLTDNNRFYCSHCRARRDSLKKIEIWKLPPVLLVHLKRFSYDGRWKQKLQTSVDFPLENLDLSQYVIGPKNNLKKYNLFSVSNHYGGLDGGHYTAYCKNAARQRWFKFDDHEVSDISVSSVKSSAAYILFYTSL
Method: DUB activity relies on a conserved catalytic cysteine residue which is particularly sensitive to irreversible oxidation by reactive oxygen species (ROS) (Lee et al., 2013). […] In this setup, purified USP8CD was used at a concentration of 60 nM and incubated for 20 min with either the inhibitory compound or with DMSO in buffered conditions. The catalytic activity of each mix was monitored on Ub-Rho substrate (Ubiquigent ref. 60-0117-050) used at a final concentration of 0.1 μM before and after filtration on a gel column (Millipore UFC30GV25). If a catalytic activity is detected after column filtration, the compound is a reversible inhibitor.

[5] = test system: AtT-20 cells
Excerpt: The AtT-20 cells viability was monitored in the conditions used to follow ACTH secretion. The viability of treated cells was concomitantly evaluated using a Cell Viability Reagent (monitoring of the cells' reducing capacity) (PrestoBlue® assay, Molecular Probes) with the aim to determine non-toxic doses of cell treatment.
After the collection of the supernatant sample for the ACTH assay in the previous step, cells were supplemented with the PrestoBlue™ cell viability reagent (Invitrogen™ A13261) at 10% final volume, and re-incubated at 37° C. for 30 minutes. Fluorescence was then read with a FLUOstar OPTIMA microplate reader.

For `Cc1cc(C(C#N)c2ccc(Cl)cc2)c(Cl)cc1NC(=O)c1cc(I)cc(I)c1O` (stereo not drawn) [Closantel, reference compound], the activity against papain [1] was “not active”, the “activity against UCH-L3” value [2] was “not active” and the “activity against USP2CD” value [3] was “active”. The “reversibility of USP8 inhibition” value [4] was “reversible”, the “dose-dependent viability assay, in words (FIG. 7)” value [5] was “less cytotoxic than niclosamide” and the “AtT-20 cell viability (PrestoBlue assay) % of control (DMSO) at 25 μM Mean (SD)” value ([5]; mouse, 24 h, 25 μM) was 104.8 (16.08) %.

Source: patent publication US20260207535A1, “CRIBLAGE INHIBITEURS USP8” (COMMISSARIAT A L'ENERGIE ATOMIQUE ET AUX ENERGIES …, priority 2022, published 2026)
